Assay results: the SangsterLogP compilation

Row | Structure (SMILES) | logP
1 | CC(=NN=C(N)N)c1cccs1 | 1.05
2 | CCCC(CCC)=NNC(N)=Nc1ccccc1 | 2.33
3 | CCC/C(=N\NC(N)=Nc1ccccc1)c1ccccc1 | 2.08
4 | NC(N)=N/N=C(\c1ccccc1)c1cccs1 | 1.96
5 | CCCCCC(CCC)=NNC(=N)N | 2.17
6 | NC(N)=N/N=C/c1cccs1 | 0.98
7 | CCCCC(C)=NNC(N)=Nc1ccccc1 | 2.05
8 | CCCC(CCC)=NNC(=N)N | 1.73
9 | N=C(N)NN=Cc1ccccc1 | 1.18
10 | CCCCCC/C(C)=N\N=C(N)N | 2.08
11 | C/C(=N/N/C(N)=N/c1ccccc1)c1ccccc1 | 2.18
12 | NC(=Nc1ccccc1)NN=Cc1ccc2ccccc2n1 | 0.99
